Several values for one entry are separate records, joined by “and”; a condition that tells them apart may be missing. Equal values may be shown once.
How the values were obtained:
C. famata = type: cell-based, Candida famata
[1] = system: Candida famata regulatory mutants able to overproduce riboflavin; test: Sensitivity to copper ions, solid Burkholder medium (Table 12); type: cell-based
Procedure: (§1) The sensitivity of the regulatory mutants of the yeast C. famata which overproduce riboflavin in iron rich medium probably due to defects in genes regulating repression (repression mutants), to different ions of heavy metals was studied. For this, the analyzed strains were streaked on the YPD plates and then were replica-plated on Burkholder synthetic medium containing leucine (40 μg/ml). The C.famata mutants L20105-40-1-11, L20105-40-1-17, L20105-3-2-1, L20105-3-2-8 and L20105-3-2-12 (all contained leu2 marker) accumulated 80–100 μg riboflavin/ml. The mutants #75, 4-48, 2-5 produced much higher amounts of riboflavin (200–250 μg/ml) but were prototrophs for leucine synthesis. Strain #75 was characterized by retarded growth comparing with other mutants. The strains VKM Y-9 (wild type) and L20105 (leu2) were used as the control strains.
Mutants overproducing lower amounts of riboflavin appeared to be more sensitive to CuSO4 (0.15 mM) than that of the strains producing higher amounts of riboflavin (inhibitory concentration 0.5 mM) (Table 12).

[2] = system: Pichia guilliermondii wild type and regulatory mutants (rib81); test: Sensitivity after electroporation to K2Cr2O7, medium with 0.5% glycerol (Table 21); type: cell-based; design: key: +++: strong growth; ++: weak growth; +: very weak growth; —: absence of growth; conditions: #9-20 (leu2); K2Cr2O7 125 μM
Excerpt: The possibility for positive selection of P. guilliermondii rib81 transformants unable to overproduce riboflavin in minimal medium was studied. For this, the toxicity of K2Cr2O7 (Cr^+6) was compared for the P. guilliermondii wild-type strain ATCC 9058 and regulatory mutants P. guilliermondii rib81 9-20 and 20-2. The cells were pregrown in liquid YPD to OD 1.5–2.0 (540 nm) and electroporated according to the protocol described (Example 34). Electroporated cells were washed three times with 10×volume of 0.6 M KCl and then the volume was adjusted to 1 ml. Then the cells were plated at 0.2 ml suspension per plate which contained 0.5% glycerol, 0.6 M KCl and K2Cr2O7 (50–1000 μM).
The visual selection of the non-overproducing riboflavin transformants is rather arbitrary and uncertain. Therefore it was decided to develop the method for positive selection of the transformants using tentative differences in sensitivity to K2Cr2O7 of wild-type P. guilliermondii and the regulatory mutants rib81 9-20 and 20-2. After 6 days of cultivation in the medium with 0.5% glycerol, it was shown that K2Cr2O7 at 150–180 μM inhibited growth of regulatory mutant 9-20 more strongly than that of the wild strain (Table 21).

[3] = system: Candida famata regulatory mutants able to overproduce riboflavin; test: Sensitivity to K2Cr2O7, solid Burkholder medium with 0.5% glycerol (Table 14); type: cell-based; design: key: +++: strong growth; ++: weak growth; —: absence of growth
Procedure: as §1

[4] = system: Candida famata regulatory mutants able to overproduce riboflavin; test: as above; type: cell-based
Procedure: as §1

[5] = system: Candida famata regulatory mutants able to overproduce riboflavin; test: Sensitivity to K2Cr2O7, solid Burkholder medium with 0.3 M sucrose (Table 13); type: cell-based
Procedure: as §1

[Cl-].[Cl-].[Co+2] [CoCl2]
concentration non-toxic for yeast growth that stimulates riboflavin synthesis (C. famata): 15 µg/mL | higher concentrations tested that inhibited plate growth (C. famata): 50 µg/mL and 100 µg/mL | maximal subinhibitory concentration which stimulates flavinogenesis (C. famata): 25 µg/mL

O=S(=O)([O-])[O-].[Cu+2] [CuSO4]
inhibitory concentration, mutants overproducing lower amounts of riboflavin [1]: 0.15 mM | inhibitory concentration, strains producing higher amounts of riboflavin [1]: 0.5 mM

[K+].[K+].[O]=[Cr](=[O])([O-])[O][Cr](=[O])(=[O])[O-] [K2Cr2O7]
growth [2]: + | growth ([3]; #2-5, K2Cr2O7 25 μM): +++ | growth ([3]; #2-5, K2Cr2O7 30 μM): +++ | growth ([3]; #2-5, K2Cr2O7 35 μM): +++ | growth ([3]; #2-5, K2Cr2O7 40 μM): +++ | growth ([3]; #2-5, K2Cr2O7 45 μM): +++ | growth ([3]; #2-5, K2Cr2O7 55 μM): ++ | growth ([3]; #2-5, K2Cr2O7 85 μM): — | growth ([3]; #2-5, K2Cr2O7 100 μM): — | growth ([3]; #2-5, K2Cr2O7 125 μM): — | growth ([3]; #2-5, K2Cr2O7 150 μM): — | growth ([3]; #4-48, K2Cr2O7 25 μM): +++ | growth ([3]; #4-48, K2Cr2O7 30 μM): +++ | growth ([3]; #4-48, K2Cr2O7 35 μM): +++ | growth ([3]; #4-48, K2Cr2O7 40 μM): +++ | growth ([3]; #4-48, K2Cr2O7 45 μM): +++ | growth ([3]; #4-48, K2Cr2O7 55 μM): ++ | growth ([3]; #4-48, K2Cr2O7 65 μM): — | growth ([3]; #4-48, K2Cr2O7 70 μM): — | growth ([3]; #4-48, K2Cr2O7 75 μM): — | growth ([3]; #4-48, K2Cr2O7 85 μM): — | growth ([3]; #4-48, K2Cr2O7 100 μM): — | growth ([3]; #4-48, K2Cr2O7 125 μM): — | growth ([3]; #4-48, K2Cr2O7 150 μM): — | growth ([3]; #75, K2Cr2O7 25 μM): +++ | growth ([3]; #75, K2Cr2O7 30 μM): +++ | growth ([3]; #75, K2Cr2O7 35 μM): +++ | growth ([3]; #75, K2Cr2O7 45 μM): ++ | growth ([3]; #75, K2Cr2O7 55 μM): ++ | growth ([3]; #75, K2Cr2O7 65 μM): — | growth ([3]; #75, K2Cr2O7 70 μM): — | growth ([3]; #75, K2Cr2O7 75 μM): — | growth ([3]; #75, K2Cr2O7 85 μM): — | growth ([3]; #75, K2Cr2O7 100 μM): — | growth ([3]; #75, K2Cr2O7 125 μM): — | growth ([3]; #75, K2Cr2O7 150 μM): — | growth ([3]; L20105 (leu2), K2Cr2O7 25 μM): +++ | growth ([3]; L20105 (leu2), K2Cr2O7 30 μM): +++ | growth ([3]; L20105 (leu2), K2Cr2O7 35 μM): +++ | growth ([3]; L20105 (leu2), K2Cr2O7 40 μM): +++ | growth ([3]; L20105 (leu2), K2Cr2O7 45 μM): +++ | growth ([3]; L20105 (leu2), K2Cr2O7 50 μM): +++ | growth ([3]; L20105 (leu2), K2Cr2O7 55 μM): +++ | growth ([3]; L20105 (leu2), K2Cr2O7 60 μM): +++ | growth ([3]; L20105 (leu2), K2Cr2O7 65 μM): ++ | growth ([3]; L20105 (leu2), K2Cr2O7 70 μM): ++ | growth ([3]; L20105 (leu2), K2Cr2O7 75 μM): ++ | growth ([3]; L20105 (leu2), K2Cr2O7 85 μM): ++ | growth ([3]; L20105 (leu2), K2Cr2O7 100 μM): ++ | growth ([3]; L20105 (leu2), K2Cr2O7 125 μM): — | growth ([3]; L20105 (leu2), K2Cr2O7 150 μM): — | growth ([3]; L20105-3-2-4, K2Cr2O7 25 μM): +++ | growth ([3]; L20105-3-2-4, K2Cr2O7 45 μM): — | growth ([3]; L20105-3-2-4, K2Cr2O7 50 μM): — | growth ([3]; L20105-3-2-4, K2Cr2O7 55 μM): — | growth ([3]; L20105-3-2-4, K2Cr2O7 60 μM): — | growth ([3]; L20105-3-2-4, K2Cr2O7 65 μM): — | growth ([3]; L20105-3-2-4, K2Cr2O7 70 μM): — | growth ([3]; L20105-3-2-4, K2Cr2O7 85 μM): — | growth ([3]; L20105-3-2-4, K2Cr2O7 100 μM): — | growth ([3]; L20105-3-2-4, K2Cr2O7 125 μM): — | growth ([3]; L20105-3-2-4, K2Cr2O7 150 μM): — | growth ([3]; L20105-3-2-8, K2Cr2O7 25 μM): +++ | growth ([3]; L20105-3-2-8, K2Cr2O7 45 μM): — | growth ([3]; L20105-3-2-8, K2Cr2O7 50 μM): — | growth ([3]; L20105-3-2-8, K2Cr2O7 55 μM): — | growth ([3]; L20105-3-2-8, K2Cr2O7 60 μM): — | growth ([3]; L20105-3-2-8, K2Cr2O7 65 μM): — | growth ([3]; L20105-3-2-8, K2Cr2O7 70 μM): — | growth ([3]; L20105-3-2-8, K2Cr2O7 75 μM): — | growth ([3]; L20105-3-2-8, K2Cr2O7 85 μM): — | growth ([3]; L20105-3-2-8, K2Cr2O7 100 μM): — | growth ([3]; L20105-3-2-8, K2Cr2O7 125 μM): — | growth ([3]; L20105-3-2-8, K2Cr2O7 150 μM): — | growth ([3]; L20105-3-2-12, K2Cr2O7 25 μM): +++ | growth ([3]; L20105-3-2-12, K2Cr2O7 45 μM): — | growth ([3]; L20105-3-2-12, K2Cr2O7 50 μM): — | growth ([3]; L20105-3-2-12, K2Cr2O7 55 μM): — | growth ([3]; L20105-3-2-12, K2Cr2O7 60 μM): — | growth ([3]; L20105-3-2-12, K2Cr2O7 65 μM): — | growth ([3]; L20105-3-2-12, K2Cr2O7 70 μM): — | growth ([3]; L20105-3-2-12, K2Cr2O7 75 μM): — | growth ([3]; L20105-3-2-12, K2Cr2O7 85 μM): — | growth ([3]; L20105-3-2-12, K2Cr2O7 100 μM): — | growth ([3]; L20105-3-2-12, K2Cr2O7 125 μM): — | growth ([3]; L20105-3-2-12, K2Cr2O7 150 μM): — | growth ([3]; VKM Y-9, K2Cr2O7 65 μM): +++ | growth ([3]; VKM Y-9, K2Cr2O7 70 μM): +++ | growth ([3]; VKM Y-9, K2Cr2O7 75 μM): +++ | growth ([3]; VKM Y-9, K2Cr2O7 85 μM): +++ | growth ([3]; VKM Y-9, K2Cr2O7 100 μM): +++ | growth ([3]; VKM Y-9, K2Cr2O7 125 μM): ++ | concentration inhibiting growth of weaker overproducers [4]: 50 µM | concentration inhibiting growth of strain #75 ([5]; medium with 0.3 M sucrose): 100 µM | concentration inhibiting growth of strains with higher riboflavin production ([5]; medium with 0.3 M sucrose): 175 µM | concentration totally inhibiting growth of mutants with lower levels of riboflavin overproduction ([5]; medium with 0.3 M sucrose): 125 µM | effect of subinhibitory concentrations on flavinogenesis of all tested strains ([5]; riboflavin overproducers and wild-type strains): stimulated flavinogenesis

Source: patent US7009045B2 (priority 2000, dated 2006)
